The values below are quoted from earlier work in US8628797B2, “Oral extended-release composition” (Andrx Pharmaceuticals, LLC, priority 2003, dated 2014).

For the first data set the following is noted: in vivo.
For `COc1c2occc2cc2ccc(=O)oc12` [8-methoxsalen], the “absorption in the presence of food” value is reported as “increased”.

Still in this data set, the particulars now being: in words; literature review.
For `C=CCOc1ccc(CC(=O)O)cc1Cl` [alclofenac], the “absorption in the presence of food” value is “delayed”.

As for `CC(=O)Oc1ccccc1C(=O)O` [aspirin], the “absorption in the presence of food” value was “delayed”. For the compound `NS(=O)(=O)c1cc2c(cc1C(F)(F)F)NC(Cc1ccccc1)NS2(=O)=O` (stereo not shown) [bendroflumethiazide], the “absorption in the presence of food” value is “unaffected”. For the compound `N[C@@H](C(=O)N[C@@H]1C(=O)N2C(C(=O)O)=C(Cl)CS[C@H]12)c1ccccc1` [cefaclor], the “absorption in the presence of food” value is “delayed”. As for `CN/C(=N/CCSCc1nc[nH]c1C)NC#N` [cimetidine], the “absorption in the presence of food” value was “delayed”. In the case of `O=c1oc2ccccc2c(O)c1Cc1c(O)c2ccccc2oc1=O` [dicoumarol], the “absorption in the presence of food” value was “increased”. For the compound `CCC(=O)O[C@H]1[C@H](O[C@@H]2[C@@H](C)[C@H](O[C@H]3C[C@@](C)(OC)[C@@H](O)[C@H](C)O3)[C@@H](C)C(=O)O[C@H](CC)[C@@](C)(O)[C@H](O)[C@@H](C)C(=O)[C@H](C)C[C@@]2(C)O)O[C@H](C)C[C@@H]1N(C)C` [erythromycin estolate], the “absorption in the presence of food” value is “unaffected”. Regarding `CC(C(=O)O)c1ccc(N2Cc3ccccc3C2=O)cc1` (stereo not shown) [indoprofen], the “absorption in the presence of food” value is given as “delayed”. `O=C1CN(/N=C/c2ccc([N+](=O)[O-])o2)C(=O)N1` [nitrofurantoin]: the “absorption in the presence of food” value is on record as “increased”. Regarding spiramycin, the “absorption in the presence of food” value is “unaffected”.

The conditions of a further data set: 1 part drug in the stated parts of water.
As for `CC[C@H]1OC(=O)[C@H](C)[C@@H](O[C@H]2C[C@@](C)(OC)[C@@H](O)[C@H](C)O2)[C@H](C)[C@@H](O[C@@H]2O[C@H](C)C[C@H](N(C)C)[C@H]2O)[C@](C)(OC)C[C@@H](C)C(=O)[C@H](C)[C@@H](O)[C@]1(C)O` [Clarithromycin, 6-O-methylerythromycin A], the solubility is recorded as ~1,000 parts of water. Turning to `CC1Cc2ccccc2N1NC(=O)c1ccc(Cl)c(S(N)(=O)=O)c1` (stereo not shown) [indapamide], the solubility result is “more than 10,000 parts of water”.
